Measured values published in patent US12065443B2, “Compounds and pharmaceutical compositions thereof for the treatment of diseases” (priority 2017, dated 2024).
Where two headings read alike, the source gives them in different places.

Columns and labels:
Experiment in all cases: biochemical
[1] = molecular target: T1, SIK3 (Homo sapiens, UniProt Q9Y2K2); conditions: ADP-Glo SIK kinase assay
T1 construct: purchased SignalChem S12-11G-100
Description: (§1) The ADP-Glo™ kinase assay is a luminescent technology assay which measures the ADP formed from a kinase reaction. […] In a second step the kinase reactions are terminated and all the remaining ATP is depleted. In a final step the ADP is converted into ATP and this newly synthesized ATP is measured by using a luciferase/luciferin reaction. The generated light is measured using an Envision plate reader, wherein the luminescent signal obtained positively correlates with the kinase activity.
(§2) 1% DMSO and 10 μM staurosporine final concentrations are used as negative and positive controls.
(§3) 2 μL enzyme-substrate mixture is added to the assay plates.
(§4) The reaction is started by adding 2 μL diluted ATP on the assay plates. Plates are centrifuged for a few seconds at 1000 rpm and gently shaken for 2 min followed by an incubation at RT for 120 min.
(§5) The reactions are stopped and the unconsumed ATP is depleted by adding 5 μL ADP-Glo Reagent (Promega, Cat #V912B) to the reaction. The plates are centrifuged for a few seconds at 1000 rpm and incubated at RT for 40 min (ATP depletion).
(§6) The ADP is converted to ATP and luciferase and luciferin is introduced to detect ATP by adding 10 μL Kinase Detection Reagent (Promega, Cat #V913B+V914B) to the reaction. The plates are centrifuged for a few seconds at 1000 rpm and incubated at RT for 30 min (ADP detection).
(§7) Luminescence is measured on an Envision plate reader (PerkinElmer Inc.).

[2] = molecular target: T2, SIK1 (Homo sapiens, UniProt P57059); conditions: ADP-Glo SIK kinase assay
T2 construct: purchased Carna Biosciences 02-131
Description: as §1, §2, §3, §4, §5, §6, §7

[3] = molecular target: T3, SIK2 (Homo sapiens, UniProt Q9H0K1); conditions: ADP-Glo SIK kinase assay
T3 construct: purchased ThermoFisher Scientific PV4792
Description: as §1, §2, §3, §4, §5, §6, §7

[4] = molecular target: T1, SIK3
Method in brief: (§8)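 Read-out: ^33P incorporated into AMARA peptide, counted on filter plates, taken as kinase activity. Reactions start on addition of labeled/unlabeled ATP to enzyme plus substrate and end with phosphoric acid. Controls: 1% DMSO (negative) and 10 μM staurosporine (positive), final.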

[5] = molecular target: T2, SIK1; conditions: 33P radioactive SIK kinase assay, AMARA peptide, 10 μM ATP; read-out: SIK1 IC50
Method in brief: as §8

[6] = molecular target: T3, SIK2; conditions: 33P radioactive SIK kinase assay, AMARA peptide, 10 μM ATP
Method in brief: as §8

T2 sequence (P57059 whole entry): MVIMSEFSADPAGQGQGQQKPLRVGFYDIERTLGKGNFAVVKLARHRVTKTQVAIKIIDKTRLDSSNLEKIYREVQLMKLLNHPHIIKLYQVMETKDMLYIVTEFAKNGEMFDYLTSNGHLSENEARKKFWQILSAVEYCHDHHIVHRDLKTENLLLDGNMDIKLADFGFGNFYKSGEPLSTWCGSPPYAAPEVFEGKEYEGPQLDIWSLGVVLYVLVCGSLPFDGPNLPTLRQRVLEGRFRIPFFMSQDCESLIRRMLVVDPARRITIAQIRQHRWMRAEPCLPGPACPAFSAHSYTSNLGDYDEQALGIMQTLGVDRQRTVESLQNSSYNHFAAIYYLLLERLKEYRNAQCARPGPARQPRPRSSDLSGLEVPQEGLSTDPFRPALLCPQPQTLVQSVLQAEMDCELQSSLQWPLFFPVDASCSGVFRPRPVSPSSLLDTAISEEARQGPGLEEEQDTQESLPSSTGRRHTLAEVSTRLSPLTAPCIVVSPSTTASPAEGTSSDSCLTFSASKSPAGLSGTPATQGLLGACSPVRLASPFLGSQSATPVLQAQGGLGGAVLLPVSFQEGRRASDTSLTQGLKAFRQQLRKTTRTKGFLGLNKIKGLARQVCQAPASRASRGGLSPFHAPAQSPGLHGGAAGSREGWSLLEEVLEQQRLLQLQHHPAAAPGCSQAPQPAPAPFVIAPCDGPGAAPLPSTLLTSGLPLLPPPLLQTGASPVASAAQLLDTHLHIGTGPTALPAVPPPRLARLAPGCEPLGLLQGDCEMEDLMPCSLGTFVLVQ
T1 sequence (Q9Y2K2 whole entry): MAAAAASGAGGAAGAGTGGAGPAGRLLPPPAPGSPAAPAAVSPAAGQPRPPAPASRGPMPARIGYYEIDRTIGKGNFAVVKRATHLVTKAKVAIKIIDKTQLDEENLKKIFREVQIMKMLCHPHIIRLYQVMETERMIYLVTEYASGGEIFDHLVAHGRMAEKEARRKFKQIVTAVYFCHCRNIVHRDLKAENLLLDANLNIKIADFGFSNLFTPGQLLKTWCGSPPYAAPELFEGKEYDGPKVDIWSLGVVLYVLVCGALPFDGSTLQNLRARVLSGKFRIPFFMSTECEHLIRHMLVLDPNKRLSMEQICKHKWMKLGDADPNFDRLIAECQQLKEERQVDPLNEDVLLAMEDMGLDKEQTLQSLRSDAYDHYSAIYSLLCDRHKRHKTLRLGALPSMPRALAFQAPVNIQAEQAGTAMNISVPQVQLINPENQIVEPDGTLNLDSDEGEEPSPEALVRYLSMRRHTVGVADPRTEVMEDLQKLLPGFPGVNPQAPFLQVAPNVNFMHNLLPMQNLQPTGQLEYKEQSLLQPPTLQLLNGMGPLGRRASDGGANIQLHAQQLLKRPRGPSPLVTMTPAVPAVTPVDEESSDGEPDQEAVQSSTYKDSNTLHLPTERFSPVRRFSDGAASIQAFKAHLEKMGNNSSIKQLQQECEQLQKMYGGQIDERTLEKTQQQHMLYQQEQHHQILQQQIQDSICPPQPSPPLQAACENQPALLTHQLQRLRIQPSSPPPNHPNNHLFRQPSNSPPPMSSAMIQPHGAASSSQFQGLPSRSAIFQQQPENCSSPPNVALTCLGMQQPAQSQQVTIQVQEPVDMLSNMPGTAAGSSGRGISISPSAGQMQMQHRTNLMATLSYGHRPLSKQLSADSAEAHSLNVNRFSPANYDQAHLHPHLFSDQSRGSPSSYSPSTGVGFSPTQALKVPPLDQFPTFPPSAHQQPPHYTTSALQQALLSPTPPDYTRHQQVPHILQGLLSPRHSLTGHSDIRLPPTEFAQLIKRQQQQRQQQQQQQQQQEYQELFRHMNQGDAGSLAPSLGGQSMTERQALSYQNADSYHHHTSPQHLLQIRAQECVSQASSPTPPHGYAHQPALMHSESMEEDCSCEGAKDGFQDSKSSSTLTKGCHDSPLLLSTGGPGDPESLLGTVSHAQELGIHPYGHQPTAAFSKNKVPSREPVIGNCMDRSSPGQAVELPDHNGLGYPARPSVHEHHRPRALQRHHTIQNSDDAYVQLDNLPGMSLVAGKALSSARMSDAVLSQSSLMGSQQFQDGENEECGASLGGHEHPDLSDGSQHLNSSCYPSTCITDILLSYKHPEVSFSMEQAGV
T3 sequence (Q9H0K1 whole entry): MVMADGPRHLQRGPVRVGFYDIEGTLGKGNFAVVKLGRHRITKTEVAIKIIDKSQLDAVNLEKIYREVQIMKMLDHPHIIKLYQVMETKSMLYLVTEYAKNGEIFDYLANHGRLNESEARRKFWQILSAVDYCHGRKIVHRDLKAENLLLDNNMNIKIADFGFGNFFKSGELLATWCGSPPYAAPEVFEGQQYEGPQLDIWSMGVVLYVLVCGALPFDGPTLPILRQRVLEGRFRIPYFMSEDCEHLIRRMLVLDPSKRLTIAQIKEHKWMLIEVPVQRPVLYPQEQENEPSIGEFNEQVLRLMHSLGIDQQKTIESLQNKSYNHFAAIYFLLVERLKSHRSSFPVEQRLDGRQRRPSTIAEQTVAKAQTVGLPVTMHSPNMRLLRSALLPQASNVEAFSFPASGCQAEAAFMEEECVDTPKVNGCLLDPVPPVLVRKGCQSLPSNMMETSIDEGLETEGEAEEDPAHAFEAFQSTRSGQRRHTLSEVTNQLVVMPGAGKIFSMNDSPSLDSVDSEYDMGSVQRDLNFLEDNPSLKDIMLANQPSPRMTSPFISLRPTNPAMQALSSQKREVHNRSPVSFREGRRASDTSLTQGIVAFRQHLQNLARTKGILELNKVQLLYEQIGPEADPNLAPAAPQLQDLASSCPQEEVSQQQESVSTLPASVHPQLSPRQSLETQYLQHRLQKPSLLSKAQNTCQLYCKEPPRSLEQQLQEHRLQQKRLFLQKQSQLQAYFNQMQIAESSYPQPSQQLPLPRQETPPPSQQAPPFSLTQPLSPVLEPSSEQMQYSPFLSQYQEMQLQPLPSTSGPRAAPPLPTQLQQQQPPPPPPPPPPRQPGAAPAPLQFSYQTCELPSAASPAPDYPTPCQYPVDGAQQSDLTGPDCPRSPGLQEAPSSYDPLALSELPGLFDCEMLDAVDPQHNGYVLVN

IC50 [1] [nM] | IC50 [2] [nM] | IC50 [3] [nM] | IC50 [4] [nM] | IC50 [5] [nM] | IC50 [6] [nM] | SMILES
0.01 to 10 | 0.01 to 10 | 0.01 to 10 |  |  |  | [2H]C([2H])([2H])Oc1cc(-c2cnc3cc(-c4cnn(C)c4)ccn23)cc(OC([2H])([2H])[2H])c1C(=O)NCC(F)(F)F [Cpd 266, 4-[7-(1-methylpyrazol-4-yl)imidazo[1,2-a]pyridin-3-yl]-2,6-bis(trideuterio-methoxy)-N-(2,2,2-trifluoroethyl)benzamide]
0.01 to 10 | 0.01 to 10 | 0.01 to 10 |  |  |  | COc1cc(-c2cnc3cc(-c4cnn(C)c4)ccn23)cc(NC(C)C)c1C(=O)NC1CC1 [compound 277, N-cyclopropyl-2-(isopropylamino)-6-methoxy-4-[7-(1-methylpyrazol-4-yl)imidazo[1,2-a]pyridin-3-yl]benzamide]
0.01 to 10 | 0.01 to 10 | 10 to 100 |  |  |  | COc1cc(-c2cnc3cc(-c4cnn(C(C)(C)C(=O)O)c4)ccn23)cc(OC)c1C(=O)NCC(F)(F)F [Cpd 304, 2-[4-[3-[3,5-dimethoxy-4-(2,2,2-trifluoroethyl-carbamoyl)phenyl]imidazo[1,2-a]pyridin-7-yl]pyrazol-1-yl]-2-methyl-propanoic acid]
0.01 to 10 | 0.01 to 10 | 0.01 to 10 |  |  |  | COc1cc(-c2cnc3cc(-c4ccc(N5CCOCC5)nn4)ccn23)cc(OC(F)F)c1C(=O)NC1CC1 [compound 286, N-cyclopropyl-2-(difluoromethoxy)-6-methoxy-4-[7-(6-morpholino-pyridazin-3-yl)imidazo[1,2-a]pyridin-3-yl]benzamide]
0.01 to 10 | 0.01 to 10 | 0.01 to 10 |  |  |  | CCOC(=O)Cn1cc(-c2ccn3c(-c4cc(OC)c(C(=O)NC5CC5)c(OC(F)F)c4)cnc3c2)cn1 [Cpd 284, ethyl 2-[4-[3-[4-(cyclopropyl-carbamoyl)-3-(difluoromethoxy)-5-methoxy-phenyl]imidazo[1,2-a]pyridin-7-yl]pyrazol-1-yl]acetate]
10 to 100 | 10 to 100 | 0.01 to 10 |  |  |  | COc1cc(-c2cnc3cc(-c4cnn(C)c4)c(OCc4ccccc4)cn23)cc(OC(F)F)c1C(=O)NC1CC1 [Cpd 300, 4-[6-benzyloxy-7-(1-methylpyrazol-4-yl)imidazo[1,2-a]pyridin-3-yl]-N-cyclopropyl-2-(difluoromethoxy)-6-methoxy-benzamide]
0.01 to 10 | 10 to 100 | 0.01 to 10 |  |  |  | COc1cc(-c2cnc3cc(-c4ccc(C)nn4)ccn23)cc(OC)c1C(=O)NCC(F)(F)F [compound 269, 2,6-dimethoxy-4-[7-(6-methylpyridazin-3-yl)imidazo[1,2-a]pyridin-3-yl]-N-(2,2,2-trifluoroethyl)benzamide]
0.01 to 10 | 0.01 to 10 | 0.01 to 10 | 0.01 to 10 | 10 to 100 | 0.01 to 10 | COc1cc(-c2cnc3cc(-c4cnn(C)c4)ccn23)cc(OC)c1C(=O)N[C@H]1C[C@@H]1C(F)F [compound 172, N-[(1S,2S)-2-(difluoromethyl)cyclopropyl]-2,6-dimethoxy-4-[7-(1-methylpyrazol-4-yl)imidazo[1,2-a]pyridin-3-yl]benzamide]
0.01 to 10 | 10 to 100 | 0.01 to 10 |  |  |  | COc1cc(-c2cnc3cc(-c4ccc(C(F)(F)F)nn4)ccn23)cc(OC(F)F)c1C(=O)NC1CC1 [compound 281, N-cyclopropyl-2-(difluoromethoxy)-6-methoxy-4-[7-[6-(trifluoromethyl)pyridazin-3-yl]imidazo[1,2-a]pyridin-3-yl]benzamide]
10 to 100 | > 500 | 100 to 500 |  |  |  | COc1cc(-c2cnc3cc(-c4cccnc4C#N)ccn23)cc(OC)c1C(=O)NCC(F)(F)F [compound 268, 4-[7-(2-cyano-3-pyridyl)imidazo[1,2-a]pyridin-3-yl]-2,6-dimethoxy-N-(2,2,2-trifluoroethyl)benzamide]
10 to 100 | > 500 | > 500 | 100 to 500 | > 500 | > 500 | COc1cc(-c2cnc3cc(-c4cnccc4C#N)ccn23)cc(OC)c1C(=O)NCC(F)(F)F [Cpd 258]
0.01 to 10 | 0.01 to 10 | 0.01 to 10 |  |  |  | COc1cc(-c2cnc3cc(-c4ccc(C#N)nn4)ccn23)cc(OC(F)F)c1C(=O)NC1CC1 [compound 282, 4-[7-(6-cyanopyridazin-3-yl)imidazo[1,2-a]pyridin-3-yl]-N-cyclopropyl-2-(difluoromethoxy)-6-methoxy-benzamide]
100 to 500 | 100 to 500 | 100 to 500 | > 500 | 100 to 500 | 100 to 500 | CCN1Cc2cc(-n3cnc4cc(-c5cnn(C)c5)ccc43)cc(NCCO)c2C1=O [Cpd 202, 2-ethyl-7-(2-hydroxyethylamino)-5-[5-(1-methylpyrazol-4-yl)benzimidazol-1-yl]isoindolin-1-one]
0.01 to 10 | 0.01 to 10 | 0.01 to 10 | 0.01 to 10 | 0.01 to 10 | 0.01 to 10 | COc1cc(-c2cnc3cc(-c4cnn(C5CN(C(=O)OC(C)(C)C)C5)c4)ccn23)cc(OC)c1C(=O)NCC(F)(F)F [compound 260, tert-butyl 3-[4-[3-[3,5-dimethoxy-4-(2,2,2-trifluoroethyl-carbamoyl)phenyl]imidazo[1,2-a]pyridin-7-yl]pyrazol-1-yl]azetidine-1-carboxylate]
10 to 100 | 100 to 500 | 0.01 to 10 |  |  |  | Cn1cc(-c2ccn3c(-c4cc(F)c(C(=O)NCC(F)(F)F)c(F)c4)cnc3c2)cn1 [compound 271, 2,6-difluoro-4-[7-(1-methylpyrazol-4-yl)imidazo[1,2-a]pyridin-3-yl]-N-(2,2,2-trifluoroethyl)benzamide]
0.01 to 10 | 0.01 to 10 | 0.01 to 10 |  |  |  | COc1cc(-c2cnc3cc(-c4ccc(N(C)C)nn4)ccn23)cc(OC(F)F)c1C(=O)NC1CC1 [compound 283, N-cyclopropyl-2-(difluoromethoxy)-4-[7-[6-(dimethylamino)pyridazin-3-yl]imidazo[1,2-a]pyridin-3-yl]-6-methoxy-benzamide]
10 to 100 | 10 to 100 | 10 to 100 |  |  |  | COc1cc(-c2cnc3cc(-c4cnn(C)c4)c(OC(C)C(=O)O)cn23)cc(OC(F)F)c1C(=O)NC1CC1 (stereo not drawn) [Cpd 303, 2-[3-[4-(cyclopropyl-carbamoyl)-3-(difluoromethoxy)-5-methoxy-phenyl]-7-(1-methylpyrazol-4-yl)imidazo[1,2-a]pyridin-6-yl]oxypropanoic acid]
100 to 500 | > 500 | 100 to 500 | 100 to 500 | > 500 | 100 to 500 | CCN1Cc2cc(-n3cnc4cc(-c5cnn(C)c5)ccc43)cc(F)c2C1=O [Cpd 175, 2-ethyl-7-fluoro-5-[5-(1-methylpyrazol-4-yl)benzimidazol-1-yl]isoindolin-1-one]
10 to 100 | 100 to 500 | 10 to 100 | 100 to 500 | > 500 | 10 to 100 | CCN1Cc2cc(-c3cnc4cc(-c5cnn(C)c5)ccn34)cc(NCCO)c2C1=O [compound 201, 2-ethyl-7-(2-hydroxyethylainino)-5-[7-(1-methylpyrazol-4-yl)imidazo[1,2-a]pyridin-3-yl]isoindolin-1-one]
10 to 100 | > 500 | > 500 | 100 to 500 | > 500 | > 500 | COc1cc(-c2cnc3cc(-c4cnccc4C(N)=O)ccn23)cc(OC)c1C(=O)NCC(F)(F)F [Cpd 259, 3-[3-[3,5-dimethoxy-4-(2,2,2-trifluoroethyl-carbamoyl)phenyl]imidazo[1,2-a]pyridin-7-yl]pyridine-4-carboxamide]
0.01 to 10 | 0.01 to 10 | 0.01 to 10 |  |  |  | COc1cc(-c2cnc3cc(-c4cnn(C)c4)c(OC(C)C#N)cn23)cc(OC(F)F)c1C(=O)NC1CC1 (stereo not drawn) [Cpd 301, 4-[6-(1-cyanoethoxy)-7-(1-methylpyrazol-4-yl)imidazo[1,2-a]pyridin-3-yl]-N-cyclopropyl-2-(difluoromethoxy)-6-methoxy-benzamide]
10 to 100 | 10 to 100 | 10 to 100 |  |  |  | CCOC(=O)C(C)Oc1cn2c(-c3cc(OC)c(C(=O)NC4CC4)c(OC(F)F)c3)cnc2cc1-c1cnn(C)c1 (stereo not drawn) [Cpd 302, ethyl 2-[3-[4-(cyclopropyl-carbamoyl)-3-(difluoromethoxy)-5-methoxy-phenyl]-7-(1-methylpyrazol-4-yl)imidazo[1,2-a]pyridin-6-yl]oxypropanoate]
